In brackets after ≈: the same amount, converted by molar mass. Read-outs that look alike come from different tables or passages of the source. Marks after values point to notes of the source that are not given here. Square brackets hold non-standard residues; d marks the D form. Peptide text beside a SMILES is read from it. Nphe = O=C(O)CNCc1ccccc1; NPrGly = CCCNCC(=O)O; Sar = CNCC(=O)O
What was measured:
[1] = Kinetic solubility; type: physicochemical
Experimental: […] Then, […] of 15 mM stock compound was added to make a solution of 120 μM final concentration with 0.8% DMSO. The solution was shaken at 37°C for ∼2 h. The solution was passed over a 0.7- μM glass fiber filter. Then, the solution was diluted 1:4 in acetonitrile to crash out any proteins. The solution was centrifuged at 500 × g for 10 min. Avoiding the pellet, 10 μl of supernatant was added to a fresh plate with 90 μl of acetonitrile. The final dilution is 40 times lower. Next, 10 μl of 40× dilution of solution was injected on the Orbi-trap. A 1 μM standard was used for the ratiometric comparison, and the assay was done in triplicate.

[2] = test system: P. aeruginosa PA103 T3SS (ExoU secretion); type: cell-based, Pseudomonas aeruginosa
[3] = test system: Yersinia pseudotuberculosis Ysc T3SS; details: cited from earlier work; for IC50: culture-based secretion assay
[4] = test system: Pseudomonas aeruginosa Psc T3SS; details: culture-based secretion assay, cited from earlier work
[5] = test system: Hrc1 T3SS, Pseudomonas syringae; details: biochemical assay, cited from earlier work; for lowest known inhibitory concentration (∼), hrpA: ref [108]
[6] = test system: Salmonella enterica Typhimurium SPI-1 T3SS; details: cited from earlier work
[7] = test system: Chlamydiales T3SS, Chlamydia; details: cell-based infection assay, cited from earlier work
[8] = test system: Y. pseudotuberculosis twin arginine translocation (Tat) system; type: cell-based, Yersinia pseudotuberculosis; details: culture optical density, 4 and 6 h
[9] = test system: Pseudomonas aeruginosa Psc T3SS; details: cited from earlier work
[10] = read-out: IC50, inhibition of secretion of T3SS effector ExoU

For `CCCN1CC(=O)N(Cc2ccccc2)CC(=O)N[C@H](C)C(=O)N[C@@H]([C@@H](C)CC)C(=O)N[C@@H](CC(C)C)C(=O)N[C@H](Cc2ccccc2)C1=O` [1EpDN 3Ala, EpD1,2N 3Ala] (cyclo(IL[dF][NPrGly][Nphe][dA])), which solubility [1] is on record?
Its solubility is 180 µM (≈ 124 µg/mL).

And the IC50 ([2]; read-out: IC50 (Table S1))?
Its IC50 is > 1000 µM.

What does the source list for `CCCN1CC(=O)N(Cc2ccccc2)CC(=O)N[C@H](CC(C)C)C(=O)N[C@@H](C)C(=O)N[C@@H](CC(C)C)C(=O)N[C@H](Cc2ccccc2)C1=O` [1EpDN 4Ala, EpD1,2N 4Ala] (cyclo(AL[dF][NPrGly][Nphe][dL]))?
solubility kinetic [1]: 75 µM (≈ 51.8 µg/mL); IC50 ([2]; read-out: IC50 (Table S1)): > 1000 µM

With `CCCN1CC(=O)N(Cc2ccccc2)CC(=O)N[C@H](CC(C)C)C(=O)N[C@@H]([C@@H](C)CC)C(=O)N[C@@H](C)C(=O)N[C@H](Cc2ccccc2)C1=O` [1EpDN 5Ala, EpD1,2N 5Ala] (cyclo(A[dF][NPrGly][Nphe][dL]I)) as the compound, how does the solubility kinetic [1] read?
Its solubility kinetic is 127 µM (≈ 87.7 µg/mL).

And the IC50 ([2]; read-out: IC50 (Table S1))?
Its IC50 is > 1000 µM.

What does the source list for `CCCN1CC(=O)N(Cc2ccccc2)CC(=O)N[C@H](CC(C)C)C(=O)N[C@@H]([C@@H](C)CC)C(=O)N[C@@H](CC(C)C)C(=O)N[C@H](C)C1=O` [1EpDN 6Ala, EpD1,2N 6Ala] (cyclo(IL[dA][NPrGly][Nphe][dL]))?
solubility kinetic [1]: 125 µM (≈ 82.1 µg/mL); IC50 ([2]; read-out: IC50 (Table S1)): > 1000 µM

For `CCCN1CC(=O)N(Cc2ccccc2)CC(=O)N[C@H](CC(C)C)C(=O)N[C@@H]([C@@H](C)CC)C(=O)N[C@@H](CC(C)C)C(=O)N[C@H](Cc2ccccc2)C1=O` [1EpDN, EpD1,2N] (cyclo(IL[dF][NPrGly][Nphe][dL])), which solubility [1] is on record?
The solubility was 14 to 17 µM (≈ 10.3 to 12.5 µg/mL).

What about the IC50 ([2]; read-out: IC50 (Table S1)) of the same compound?
The IC50 was 8.2 µM.

And the IC50 [2, 10]?
The IC50 was ~8 µM.

What about the IC50 ([3]; ref [22], read-out: IC50, YopE secretion) of the same compound?
The IC50 was 14.3 µM.

What about the IC50 ([4]; ref [22], read-out: IC50, ExoU secretion) of the same compound?
Its IC50 is 8.2 µM.

For `CCCN1CC(=O)N(Cc2ccccc2)CC(=O)N[C@@H](CC(C)C)C(=O)N[C@@H]([C@@H](C)CC)C(=O)N[C@@H](CC(C)C)C(=O)N[C@H](Cc2ccccc2)C1=O` [2EpDN, 2-EpD1,2N] (cyclo(IL[dF][NPrGly][Nphe]L)), which solubility kinetic [1] is on record?
Its solubility kinetic is 12 µM (≈ 8.8 µg/mL).

And the IC50 ([2]; read-out: IC50 (Table S1))?
The IC50 was 15.3 µM.

Which solubility kinetic [1] does the source give for `CCCN1CC(=O)N(Cc2ccccc2)CC(=O)N[C@H](CC(C)C)C(=O)N[C@@H]([C@@H](C)CC)C(=O)N[C@H](CC(C)C)C(=O)N[C@H](Cc2ccccc2)C1=O` [3EpDN, 3-EpD1,2N] (cyclo(I[dL][dF][NPrGly][Nphe][dL])) here?
The solubility kinetic was 18 µM (≈ 13.2 µg/mL).

What about the IC50 ([2]; read-out: IC50 (Table S1)) of the same compound?
The IC50 was 16 µM.

Which “lowest known inhibitory concentration (∼), hrpA” value [5] does the source give for `O=C(O)c1ccc(O)cc1` [4-Hydroxybenozic acid] here?
The value was “∼2.5 mM hrpA^e”.

Which solubility ([1]; DMEM (no antibiotics)) does the source give for `CC[C@H](C)[C@@H]1NC(=O)[C@H](CC(C)C)NC(=O)CN(Cc2ccccc2)C(=O)CN(C)C(=O)[C@@H](Cc2ccccc2)NC(=O)[C@@H](CC(C)C)NC1=O` [4EpDN 1Sar, 4-EpD1,2N 1Sar] (cyclo(I[dL][dF][Sar][Nphe]L)) here?
Its solubility is 6 µM (≈ 4.23 µg/mL).

And the solubility ([1]; M9)?
Its solubility is 4 µM (≈ 2.82 µg/mL).

And the “T3SS inhibitory activity (ExoU secretion), in words” value [2]?
The value was “significantly reduced activity”.

And the IC50 ([2]; read-out: IC50 (Table S1))?
Its IC50 is 19 µM.

Which solubility kinetic [1] does the source give for `CCCN1CC(=O)N(Cc2ccccc2)CC(=O)N[C@@H](CC(C)C)C(=O)N[C@@H]([C@@H](C)CC)C(=O)N[C@H](CC(C)C)C(=O)N[C@@H](Cc2ccccc2)C1=O` [5EpDN, 5-EpD1,2N] (cyclo(F[NPrGly][Nphe]LI[dL])) here?
Its solubility kinetic is 13 µM (≈ 9.53 µg/mL).

And the IC50 ([2]; read-out: IC50 (Table S1))?
Its IC50 is 6.3 µM.

With `CCCN1CC(=O)N(Cc2ccccc2)CC(=O)N[C@H](CC(C)C)C(=O)N[C@@H]([C@@H](C)CC)C(=O)N[C@H](CC(C)C)C(=O)N[C@@H](Cc2ccccc2)C1=O` [6EpDN, 6-EpD1,2N] (cyclo(F[NPrGly][Nphe][dL]I[dL])) as the compound, how does the solubility kinetic [1] read?
Its solubility kinetic is 1 µM (≈ 0.733 µg/mL).

What about the IC50 ([2]; read-out: IC50 (Table S1)) of the same compound?
Its IC50 is > 1000 µM.

Which solubility kinetic [1] does the source give for `CCCN1CC(=O)N(Cc2ccccc2)CC(=O)N[C@H](CC(C)C)C(=O)N[C@@H]([C@@H](C)CC)C(=O)N[C@@H](CC(C)C)C(=O)N[C@@H](Cc2ccccc2)C1=O` [8EpDN, 8-EpD1,2N] (cyclo(F[NPrGly][Nphe][dL]IL)) here?
Its solubility kinetic is 1 µM (≈ 0.733 µg/mL).

And the IC50 ([2]; read-out: IC50 (Table S1))?
Its IC50 is 41.5 µM.

What does the source list for `CCCN1CC(=O)N(Cc2ccccc2)CC(=O)N[C@@H](CC(C)C)C(=O)N[C@H]([C@H](C)CC)C(=O)N[C@H](CC(C)C)C(=O)N[C@@H](Cc2ccccc2)C1=O` [9EpDN, 9-EpD1,2N] (cyclo(F[NPrGly][Nphe]L[dI][dL]))?
solubility kinetic [1]: 10 µM (≈ 7.33 µg/mL); IC50 ([2]; read-out: IC50 (Table S1)): 12.8 µM; IC50 [2, 10]: ~13 µM

For `O=c1cc(-c2ccccc2)oc2cc(O)c(O)c(O)c12` [Baicalein], which IC50 ([6]; culture-based secretion assay, ref [84], [85], read-out: IC50, SopE2 secretion) is on record?
The IC50 was 3.6 µM.

And the IC50 ([7]; ref [84], [85])?
Its IC50 is 500 µM.

With `Cc1ccc(S(=O)(=O)/C=C/C#N)cc1` [Bay 11-7082] as the compound, how does the “growth of SufI-β-lactamase Tat reporter bacteria in penicillin G / Tat inhibition, in words” value [8] read?
Its value is “strongly reduced growth of bacteria”.

What does the source list for `CCOc1cc(CN2N=C(C(=O)Nc3ccc(F)cc3F)SCC2=O)ccc1O` [Fluorothiazinon]?
lowest known inhibitory concentration (∼), SipA ([6]; footnote printed as a, ref [93]–[96]): ~50 µM; lowest known inhibitory concentration (∼), Chlamydia ([7]; ref [93]–[96]): ∼25^c μM; lowest known inhibitory concentration (∼), ExoT, ExoY secretion ([4]; ref [93]–[96]): ∼20 μg/ml ExoT^b ExoY^b

Which IC50 ([6]; culture-based secretion assay, ref [101], read-out: IC50, SipC secretion) does the source give for `CCCCc1ccc(C(=O)O)nc1` [Fusaric acid] here?
The IC50 was 53.5 µM.

For `O=C(N/N=C/c1cc(Br)cc(Br)c1O)c1ccc([N+](=O)[O-])cc1` [INP0007], which “lowest known inhibitory concentration (∼), SipAC secretion” value ([6]; culture-based secretion assay, ref [64], [72]) is on record?
Its value is “∼100 SipAC^b μM”.

What about the “lowest known inhibitory concentration (∼), YopE secretion” value [3] of the same compound?
The value was “∼50 YopE^b μM”.

For `Cc1cc(Cl)cc(/C=N/NC(=O)c2ccc(O)cc2O)c1O` [INP0341], which “lowest known inhibitory concentration (∼), Chlamydia” value ([7]; ref [68], [70]) is on record?
The value was “∼20^c μM”.

And the “lowest known inhibitory concentration (∼), PA” value ([9]; cell-based infection assay, ref [68], [70])?
The value was “∼80^c μM”.

Which “lowest known inhibitory concentration (∼), Chlamydia” value ([7]; ref [70]) does the source give for `O=C(N/N=C/c1c(O)ccc2ccccc12)c1ccc(Cl)cc1` [INP0400] here?
Its value is “∼20^c μM”.

Which “lowest known inhibitory concentration (∼), hrp” value ([5]; ref [78]) does the source give for `O=C(N/N=C/c1ccc(O)c(O)c1O)c1ccccc1` [INP0401] here?
Its value is “∼50 hrp^e μM”.

Which “lowest known inhibitory concentration (∼), SipC secretion” value ([6]; culture-based secretion assay, ref [86]) does the source give for `CC(C)=CCc1c(O)cc2oc(-c3ccc(O)cc3)c(O)c(=O)c2c1O` [Licoflavonol] here?
Its value is “∼50 SipC^b μM”.

Which “lowest known inhibitory concentration (∼), Chlamydia” value ([7]; ref [65]) does the source give for `CC(Oc1ccc(Cl)cc1Cl)C(=O)NCc1ccc2c(c1)OCO2` (centres unmarked) [MBX1641] here?
The value was “∼10^c μM”.

And the IC50 ([4]; ref [65], read-out: IC50, ExoS secretion)?
Its IC50 is 10 µM.

With `CCC(Oc1ncc(Cl)cc1Cl)C(=O)NCc1ccc2sccc2c1` (centres unmarked) [MBX2401] as the compound, how does the IC50 ([4]; ref [44], read-out: IC50, ExoS secretion) read?
Its IC50 is 1.2 µM.

For `O=C(N/N=C/c1cc(Br)cc(Br)c1O)c1cccnc1` [ME0052], which “lowest known inhibitory concentration (∼), Yops secretion” value [3] is on record?
The value was “∼20 Yops^b μM”.

For `COc1c2cc(c(O)c1OC)CCCC[C@@H](O)CCc1ccc(O)c-2c1` [Myricanol], which IC50 ([6]; footnote printed as a, ref [107], read-out: IC50, SipC) is on record?
Its IC50 is 41.3 µM.

For `O=C1C=CC(=O)N1c1ccccc1` [N-phenylmaleimide], which “growth of SufI-β-lactamase Tat reporter bacteria in penicillin G / Tat inhibition, in words” value [8] is on record?
The value was “strongly reduced growth of bacteria”.

With `COc1ccc(C(C)=O)c(O)c1` [Paeonol] as the compound, how does the “lowest known inhibitory concentration (∼), Sips secretion” value ([6]; culture-based secretion assay, ref [99]) read?
The value was “∼95 Sips^b μM”.

With `C[n+]1cc2c3c(ccc2c2ccc4cc5c(cc4c21)OCO5)OCO3` [Sanguinarine chloride] as the compound, how does the “lowest known inhibitory concentration (∼), SipA” value ([6]; footnotes b and f: secretion assay and translocation assay, ref [88]) read?
The value was “∼5 SipA^b^f μM”.

Which “lowest known inhibitory concentration (∼), Sips secretion” value ([6]; culture-based secretion assay, ref [100]) does the source give for `COc1cc(C=O)cc(OC)c1O` [Syringaldehyde] here?
Its value is “∼180 Sips^b μM”.

For `COc1cc(C(=O)O)ccc1O` [Vanillic acid], which “lowest known inhibitory concentration (∼), hrpA” value [5] is on record?
Its value is “∼2.5 mM hrpA^e”.

With `Cc1c(C)c2c(c(C)c1O)CC[C@@](C)(CCC[C@H](C)CCC[C@H](C)CCCC(C)C)O2` [α-tocopherol] as the compound, how does the “lowest known inhibitory concentration (∼), PA, ExoY” value ([9]; footnotes c and f: cell-based infection assay, ExoY translocation assay, ref [105]) read?
The value was “∼10^c ExoY^f μM”.

What does the source list for (-)-Hopeaphenol?
IC50 ([3]; ref [97], read-out: IC50, YopD secretion): 3.3 µM; lowest known inhibitory concentration (∼), Chlamydia ([7]; ref [97]): ∼25^c μM; lowest known inhibitory concentration (∼), ExoS secretion ([4]; ref [97]): ∼50 ExoS^b μM

— publication PMC8373237 (Antimicrobial Agents and Chemotherapy, 2021)
